Columns and labels:
[1] = molecular target: T1, WT BTK (Homo sapiens, UniProt Q06187); experiment: In vitro dialysis assay (irreversibility assay), WT BTK; format: biochemical; details: reversible or irreversible/covalent inhibition after 24 h dialysis
Method: The compound-enzyme complex was dialyzed against the same buffer supplemented with 40 mM ATP for 24 hr. Cumulative dialysis factor>160,000×. After dialysis, the BTK activity was measured in the presence […] and 1 mM substrate peptide and compared to that in non-dialyzed samples. Assay buffer: 100 mM HEPES, pH7.5; […]; 5 mM MgCl2; 1 mM DTT. In this study, Ibrutiib (a FDA approved irreversible BTK inhibitor) was used as a positive control and Saurosporine (a reversible BTK inhibitor) was used as a negative control.

[2] = molecular target: T1, WT BTK; experiment: Caliper-based kinase assay, WT BTK; format: biochemical; details: 0.5 nM enzyme, ATP 16 μM, room temperature 3 h; read-out: WT BTK IC50 (nM) (irreversible inhibition)
Method: A Caliper-based kinase assay (Caliper Life Sciences, Hopkinton, Mass.) was used to measure inhibition of WT and […] Btk kinase activity of a compound of the present disclosure. […] The reaction was then terminated with EDTA, final concentration 20 mM and the phosphorylated reaction product was quantified on a Caliper Desktop Profiler (Caliper LabChip 3000).

T1 sequence (Q06187 whole entry): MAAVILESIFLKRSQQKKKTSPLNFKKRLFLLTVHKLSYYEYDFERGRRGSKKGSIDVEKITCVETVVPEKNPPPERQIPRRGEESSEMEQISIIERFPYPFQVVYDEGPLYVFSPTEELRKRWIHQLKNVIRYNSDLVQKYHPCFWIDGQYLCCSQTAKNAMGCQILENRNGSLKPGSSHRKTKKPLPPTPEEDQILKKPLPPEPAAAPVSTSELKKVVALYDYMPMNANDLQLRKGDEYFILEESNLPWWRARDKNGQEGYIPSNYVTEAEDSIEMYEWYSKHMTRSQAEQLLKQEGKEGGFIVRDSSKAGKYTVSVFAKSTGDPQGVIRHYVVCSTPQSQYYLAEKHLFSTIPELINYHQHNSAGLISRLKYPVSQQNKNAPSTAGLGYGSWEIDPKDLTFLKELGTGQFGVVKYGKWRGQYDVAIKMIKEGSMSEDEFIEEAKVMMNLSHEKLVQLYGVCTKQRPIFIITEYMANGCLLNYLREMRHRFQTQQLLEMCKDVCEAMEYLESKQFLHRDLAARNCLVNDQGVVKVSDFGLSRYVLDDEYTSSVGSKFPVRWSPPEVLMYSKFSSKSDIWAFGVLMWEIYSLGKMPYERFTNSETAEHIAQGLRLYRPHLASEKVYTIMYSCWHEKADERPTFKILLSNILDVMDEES

Q: What does the source list for `C=CC(=O)Nc1cc(Nc2nc(-c3ccnc(N4CCn5c(cc6c5CC(C)(C)C6)C4=O)c3C)cn(C)c2=O)ccc1N1CCN(C2CCOCC2)C[C@@H]1C` [Example 40, N-(5-[[6-(2-[4,4-dimethyl-9-oxo-1,10-diazatricyclo[6.4.0.0^[2,6]]dodeca-2(6),7-dien-10-yl]-3-methylpyridin-4-yl)-4-methyl-3-oxopyrazin-2-yl]amino]-2-[(2S)-2-methyl-4-(oxan-4-yl)piperazin-1-yl]phenyl)prop-2-enamide]?
A: Conclusion (WT BTK) [1]: Irreversible/covalent inhibition; IC50 [2]: 0.083 nM

Q: How did the “Conclusion (WT BTK)” value [1] turn out when `C=CC(=O)Nc1cc(Nc2nc(-c3ccnc(N4CCc5c(sc6c5CCCC6)C4=O)c3C)cn(C)c2=O)ccc1N1CCN(C2COC2)C[C@@H]1C` [Example 44, (S)—N-(2-(2-methyl-4-(oxetan-3-yl)piperazin-1-yl)-5-((4-methyl-6-(3-methyl-2-(1-oxo-3,4,5,6,7,8-hexahydrobenzo [4, 5]thieno [2,3-c]pyridin-2(1H)-yl)pyridin-4-yl)-3-oxo-3,4-dihydropyrazin-2-yl)amino)phenyl) acrylamide] was run?
A: The value was “Irreversible/covalent inhibition”.

Q: What about the IC50 [2] of the same compound?
A: The IC50 was 0.98 nM.

Q: What does the source list for `C=CC(=O)Nc1cc(Nc2nc(-c3ccnc(N4CCn5c(cc6c5CC(C)(C)C6)C4=O)c3C)cn(C)c2=O)ccc1N1CCN(C2COC2)CC1(C)C` [Example 45, N-[2-[2,2-dimethyl-4-(oxetan-3-yl)piperazin-1-yl]-5-[[6-(2-[4,4-dimethyl-9-oxo-1,10-diazatricyclo[6.4.0.0^[2,6]]dodeca-2(6),7-dien-10-yl]-3-methylpyridin-4-yl)-4-methyl-3-oxopyrazin-2-yl]amino]phenyl]prop-2-enamide]?
A: Conclusion (WT BTK) [1]: Irreversible/covalent inhibition; IC50 [2]: 0.36 nM

Q: How did the “Conclusion (WT BTK)” value [1] turn out when `C=CC(=O)Nc1cc(Nc2nc(-c3ccnc(N4CCn5c(cc6c5CC(C)(C)C6)C4=O)c3C)cn(C)c2=O)cnc1N1CCN(C2COC2)C[C@@H]1C` [Example 46, N-(5-[[6-(2-[4,4-dimethyl-9-oxo-1,10-diazatricyclo[6.4.0.0^[2,6]]dodeca-2(6),7-dien-10-yl]-3-methylpyridin-4-yl)-4-methyl-3-oxopyrazin-2-yl]amino]-2-[(2S)-2-methyl-4-(oxetan-3-yl)piperazin-1-yl]pyridin-3-yl)prop-2-enamide] was run?
A: Its value is “Irreversible/covalent inhibition”.

Q: What about the IC50 [2] of the same compound?
A: Its IC50 is 0.16 nM.

Q: With `C=CC(=O)Nc1cc(Nc2nc(-c3ccnc(N4CCn5c(cc6c5CC(C)(C)C6)C4=O)c3CO)cn(C)c2=O)ccc1N1CCN(C2CCOCC2)CC1C` (stereo not drawn) [Example 47, N-(5-((6-(2-(7,7-dimethyl-1-oxo-1,3,4,6,7,8-hexahydro-2H-cyclopenta[4,5]pyrrolo[1,2-a]pyrazin-2-yl)-3-(hydroxymethyl)pyridin-4-yl)-4-methyl-3-oxo-3,4-dihydropyrazin-2-yl)amino)-2-(2-methyl-4-(tetrahydro-2H-pyran-4-yl)piperazin-1-yl)phenyl)acrylamide] as the compound, how does the “Conclusion (WT BTK)” value [1] read?
A: The value was “Irreversible/covalent inhibition”.

Q: What about the IC50 [2] of the same compound?
A: The IC50 was 0.12 nM.

Q: Which results are given for `C=CC(=O)Nc1cc(Nc2nc(-c3ccnc(N4CCn5c(cc6c5CC(C)(C)C6)C4=O)c3CO)cn(C)c2=O)ccc1N1CCN(C2CCOCC2)C[C@@H]1C(F)(F)F` [Example 48-R, N-(5-[[6-(2-[4,4-dimethyl-9-oxo-1,10-diazatricyclo[6.4.0.0^[2,6]]dodeca-2(6),7-dien-10-yl]-3-(hydroxymethyl)pyridin-4-yl)-4-methyl-3-oxopyrazin-2-yl]amino]-2-[(2R)-4-(oxan-4-yl)-2-(trifluoromethyl)piperazin-1-yl]phenyl)prop-2-enamide]?
A: Conclusion (WT BTK) [1]: Irreversible/covalent inhibition; IC50 [2]: 0.065 nM
